Our source for the Activity values is ChEMBL document CHEMBL2407042, “Investigation of the protein alkylation sites of the STAT3:STAT3 inhibitor Stattic by mass spectrometry” (Bioorg Med Chem Lett, 2013).

SMILES strings stand for the structures. Activity calls are given as the source filed them. No cut-off for these calls is given here.

For assay [1], the species on record is Homo sapiens. Description: Binding affinity to STAT3 beta (127 to 722) (unknown origin) expressed in Escherichia coli BL21 Rosetta at 50 uM treated for 1 hr prior to trypsin digestion measured after 24 hrs by LC-MS/MS analysis in presence of ammonium bicarbonate and guanidium HCl.
Assay [2] is filed under the species Homo sapiens. As to the kind of experiment: Binding affinity to STAT3 beta (127 to 722) (unknown origin) expressed in Escherichia coli BL21 Rosetta at 50 uM treated for 1 hr prior to trypsin digestion measured after 24 hrs by LC-MS/MS analysis in presence of ammonium bicarbonate and acetonitrile.
For assay [3], the species on record is Homo sapiens. Description: Binding affinity to STAT3 beta (127 to 722) (unknown origin) expressed in Escherichia coli BL21 Rosetta at 50 uM treated for 1 hr prior to trypsin digestion measured after 24 hrs by LC-MS/MS analysis in presence of ammonium bicarbonate and N-octyl-glucoside.
The species named for assay [4] is Homo sapiens. As to the kind of experiment: Binding affinity to STAT3 beta (127 to 722) (unknown origin) expressed in Escherichia coli BL21 Rosetta at 50 uM after 1 hr by mass spectrophotometric analysis.
The species entered for assay [5] is Homo sapiens. Description: Binding affinity to STAT3 beta (127 to 722) (unknown origin) expressed in Escherichia coli BL21 Rosetta at 50 uM treated for 1 hr prior to trypsin digestion measured after 24 hrs by LC-MS/MS analysis in presence of ammonium bicarbonate.

On to `O=[N+]([O-])c1ccc2c(c1)S(=O)(=O)C=C2`, for which, in the assay filed under Homo sapiens [1], the outcome was inactive. Further, the result in the assay filed under Homo sapiens [2], in the assay listed under Homo sapiens [3], in the assay listed under Homo sapiens [4] and in the assay listed under Homo sapiens [5] was Active.
